# Reference: patent US20230398130A1, “METHODS AND COMPOSITIONS FOR DIFFERENTIATING STEM CELLS” (Massachusetts Institute of Technology, priority 2020, published 2023)
# Where a name gives a salt, the structure may show the parent alone.
# Tests used:
# ISC-enriched organoids [1] = experiment: Primary screen, 384-well 2.5-D organoid differentiation (ENR+CD, 6 days): carbachol-induced lysozyme secretion (LYZ.S); assay type: cell-based, murine; details: FC vs plate median
# From the text: (§1) High-throughput screening.
# ISC-enriched organoids [2] = experiment: Primary screen, 384-well 2.5-D organoid differentiation (ENR+CD, 6 days): basal lysozyme secretion (LYZ.NS); assay type: cell-based, murine; details: for Dose.FC.LYZ.NS: FC vs plate median; for Z.LYZ.NS: standard z score of FC
# From the text: as §1
# ISC-enriched organoids [3] = experiment: Primary screen, 384-well 2.5-D organoid differentiation (ENR+CD, 6 days, Target Selective Inhibitor Library, vs whole-plate median): ATP (CellTiter-Glo 3D, CTG); details: for Dose.FC.CTG: FC vs plate median; for Z.CTG: standard z score of FC
# [4] = primary screen, dose 0.08 uM, ENR+CD 6 days
# [5] = primary screen, dose 0.40 uM, ENR+CD 6 days
# [6] = primary screen, dose 2.00 uM, ENR+CD 6 days
# [7] = primary screen, dose 10.00 uM, ENR+CD 6 days
compound,measurement,setting,value
CC(=O)O[C@H]1C[C@@H]2CC[C@@H]3[C@H](CC[C@@]4(C)[C@H]3C[C@H]([N+]3(C)CCCCC3)[C@@H]4OC(C)=O)[C@@]2(C)C[C@@H]1[N+]1(C)CCCCC1.[Br-].[Br-] [Pancuronium dibromide],Dose.FC.LYZ.S,"ISC-enriched organoids [1]; Dose 0.08 uM, primary screen",0.213 log 2 fold change
same,Dose.FC.LYZ.S,"ISC-enriched organoids [1]; Dose 0.40 uM, primary screen",0.094 log 2 fold change
same,Dose.FC.LYZ.S,"ISC-enriched organoids [1]; Dose 2.00 uM, primary screen",0.099 log 2 fold change
same,Dose.FC.LYZ.S,"ISC-enriched organoids [1]; Dose 10.00 uM, primary screen",0.004 log 2 fold change
same,Dose.FC.LYZ.NS,"ISC-enriched organoids [2]; Dose 0.08 uM, primary screen",0.128 log 2 fold change
same,Z.LYZ.NS,ISC-enriched organoids [2]; Dose 0.08 uM,1.118
same,Dose.FC.LYZ.NS,"ISC-enriched organoids [2]; Dose 0.40 uM, primary screen",0.047 log 2 fold change
same,Z.LYZ.NS,ISC-enriched organoids [2]; Dose 0.40 uM,0.406
same,Dose.FC.LYZ.NS,"ISC-enriched organoids [2]; Dose 2.00 uM, primary screen",0.093 log 2 fold change
same,Z.LYZ.NS,ISC-enriched organoids [2]; Dose 2.00 uM,0.806
same,Dose.FC.LYZ.NS,"ISC-enriched organoids [2]; Dose 10.00 uM, primary screen",0.035 log 2 fold change
same,Z.LYZ.NS,ISC-enriched organoids [2]; Dose 10.00 uM,0.302
same,Dose.FC.CTG,"ISC-enriched organoids [3]; Dose 0.08 uM, primary screen",0.217 log 2 fold change
same,Z.CTG,ISC-enriched organoids [3]; Dose 0.08 uM,0.519
same,Dose.FC.CTG,"ISC-enriched organoids [3]; Dose 0.40 uM, primary screen",0.226 log 2 fold change
same,Z.CTG,ISC-enriched organoids [3]; Dose 0.40 uM,0.541
same,Dose.FC.CTG,"ISC-enriched organoids [3]; Dose 2.00 uM, primary screen",−0.012 log 2 fold change
same,Z.CTG,ISC-enriched organoids [3]; Dose 2.00 uM,−0.029
same,Dose.FC.CTG,"ISC-enriched organoids [3]; Dose 10.00 uM, primary screen",0.062 log 2 fold change
same,Z.CTG,ISC-enriched organoids [3]; Dose 10.00 uM,0.148
COc1cccc2c1C(=O)c1c(O)c3c(c(O)c1C2=O)C[C@@](O)(C(C)=O)C[C@@H]3O[C@H]1C[C@H](N)[C@H](O)[C@H](C)O1 [Daunorubicin HCl],Dose.FC.LYZ.S,"ISC-enriched organoids [1]; Dose 0.08 uM, ENR+CD, 6 days",−0.096 log 2 fold change
same,Dose.FC.LYZ.S,"ISC-enriched organoids [1]; Dose 0.40 uM, ENR+CD, 6 days",−0.329 log 2 fold change
same,Dose.FC.LYZ.S,"ISC-enriched organoids [1]; Dose 2.00 uM, ENR+CD, 6 days",−0.343 log 2 fold change
same,Dose.FC.LYZ.S,"ISC-enriched organoids [1]; Dose 10.00 uM, ENR+CD, 6 days",−0.374 log 2 fold change
same,Dose.FC.LYZ.NS,"ISC-enriched organoids [2]; Dose 0.08 uM, ENR+CD, 6 days",−0.136 log 2 fold change
same,Z.LYZ.NS,ISC-enriched organoids [2]; Dose 0.08 uM,−1.188
same,Dose.FC.LYZ.NS,"ISC-enriched organoids [2]; Dose 0.40 uM, ENR+CD, 6 days",−0.241 log 2 fold change
same,Z.LYZ.NS,ISC-enriched organoids [2]; Dose 0.40 uM,−2.099
same,Dose.FC.LYZ.NS,"ISC-enriched organoids [2]; Dose 2.00 uM, ENR+CD, 6 days",−0.262 log 2 fold change
same,Z.LYZ.NS,ISC-enriched organoids [2]; Dose 2.00 uM,−2.280
same,Dose.FC.LYZ.NS,"ISC-enriched organoids [2]; Dose 10.00 uM, ENR+CD, 6 days",−0.260 log 2 fold change
same,Z.LYZ.NS,ISC-enriched organoids [2]; Dose 10.00 uM,−2.262
same,Dose.FC.CTG,"ISC-enriched organoids [3]; Dose 0.08 uM, ENR+CD, 6 days",−0.467 log 2 fold change
same,Z.CTG,ISC-enriched organoids [3]; Dose 0.08 uM,−1.115
same,Dose.FC.CTG,"ISC-enriched organoids [3]; Dose 0.40 uM, ENR+CD, 6 days",−0.601 log 2 fold change
same,Z.CTG,ISC-enriched organoids [3]; Dose 0.40 uM,−1.436
same,Dose.FC.CTG,"ISC-enriched organoids [3]; Dose 2.00 uM, ENR+CD, 6 days",−0.817 log 2 fold change
same,Z.CTG,ISC-enriched organoids [3]; Dose 2.00 uM,−1.950
same,Dose.FC.CTG,"ISC-enriched organoids [3]; Dose 10.00 uM, ENR+CD, 6 days",−1.100 log 2 fold change
same,Z.CTG,ISC-enriched organoids [3]; Dose 10.00 uM,−2.628
CC(C)c1c(C(=O)Nc2ccccc2)c(-c2ccccc2)c(-c2ccc(F)cc2)n1CC[C@@H](O)C[C@@H](O)CC(=O)[O-].CC(C)c1c(C(=O)Nc2ccccc2)c(-c2ccccc2)c(-c2ccc(F)cc2)n1CC[C@@H](O)C[C@@H](O)CC(=O)[O-].[Ca+2] [Atorvastatin Calcium],Dose.FC.LYZ.S,ISC-enriched organoids [1]; [4],0.022 log 2 fold change
same,Dose.FC.LYZ.S,ISC-enriched organoids [1]; [5],−0.062 log 2 fold change
same,Dose.FC.LYZ.S,ISC-enriched organoids [1]; [6],−0.354 log 2 fold change
same,Dose.FC.LYZ.S,ISC-enriched organoids [1]; [7],−0.305 log 2 fold change
same,Dose.FC.LYZ.NS,ISC-enriched organoids [2]; [4],−0.009 log 2 fold change
same,Z.LYZ.NS,"ISC-enriched organoids [2]; primary screen, dose 0.08 uM",−0.077
same,Dose.FC.LYZ.NS,ISC-enriched organoids [2]; [5],0.007 log 2 fold change
same,Z.LYZ.NS,"ISC-enriched organoids [2]; primary screen, dose 0.40 uM",0.062
same,Dose.FC.LYZ.NS,ISC-enriched organoids [2]; [6],−0.247 log 2 fold change
same,Z.LYZ.NS,"ISC-enriched organoids [2]; primary screen, dose 2.00 uM",−2.148
same,Dose.FC.LYZ.NS,ISC-enriched organoids [2]; [7],−0.235 log 2 fold change
same,Z.LYZ.NS,"ISC-enriched organoids [2]; primary screen, dose 10.00 uM",−2.045
same,Dose.FC.CTG,ISC-enriched organoids [3]; [4],−0.129 log 2 fold change
same,Z.CTG,"ISC-enriched organoids [3]; primary screen, dose 0.08 uM",−0.309
same,Dose.FC.CTG,ISC-enriched organoids [3]; [5],−0.348 log 2 fold change
same,Z.CTG,"ISC-enriched organoids [3]; primary screen, dose 0.40 uM",−0.831
same,Dose.FC.CTG,ISC-enriched organoids [3]; [6],−1.085 log 2 fold change
same,Z.CTG,"ISC-enriched organoids [3]; primary screen, dose 2.00 uM",−2.591
same,Dose.FC.CTG,ISC-enriched organoids [3]; [7],−1.583 log 2 fold change
same,Z.CTG,"ISC-enriched organoids [3]; primary screen, dose 10.00 uM",−3.780
